According to paper PMC6317804, “The integration of pharmacophore-based 3D QSAR modeling and virtual screening in safety profiling: A case study to identify antagonistic activities against adenosine receptor, A2A, using 1,897 known drugs” (PLoS ONE, 2019):

Key:
[1] = target: T1, adenosine receptor 2A (A2A) (Homo sapiens, UniProt P29274); experiment: Functional assay monitoring Ca2+ flux (DiscoveRx); type: cell-based; set-up: inhibition: dose or concentration left out as unconfirmed; conditions: for inhibition: read-out: IC50, Ca2+, M
T1 construct: CEREP (Poitiers, France), paid service
Procedure: (§1) Competition binding assay using radioactive ligands and functional assay monitoring cAMP were carried out as a paid service provided by CEREP (Poitiers, France). The functional assays monitoring Ca^2+ flux were carried out as a paid service provided by DiscoveRx (Carlsbad, CA).

[2] = target: T1, adenosine receptor 2A (A2A); experiment: Functional antagonist assay monitoring cAMP (CEREP); type: cell-based;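 for IC50, cAMP, M: eight-point concentration-response from 0 to 10 µM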
Procedure: as §1

[3] = target: T1, adenosine receptor 2A (A2A); experiment: Competition binding assay using radioactive ligands (CEREP); set-up: inhibition: dose or concentration left out as unconfirmed; conditions: for inhibition at 10 µM: fixed compound concentration of 10 μM; for inhibition: read-out: %inhibition, binding;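 for all read-outs here: compounds screened at a single fixed 10 µM concentration for displacement of a radioligand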
Procedure: as §1

[4] = tested on: A2A; conditions: cited from earlier work
[5] = concentration-response up to 10 μM, read-out: IC50, cAMP
[6] = concentration-response up to 10 μM, read-out: IC50, Ca2+
[7] = concentration-response up to 10 μM

T1 sequence (P29274 whole entry): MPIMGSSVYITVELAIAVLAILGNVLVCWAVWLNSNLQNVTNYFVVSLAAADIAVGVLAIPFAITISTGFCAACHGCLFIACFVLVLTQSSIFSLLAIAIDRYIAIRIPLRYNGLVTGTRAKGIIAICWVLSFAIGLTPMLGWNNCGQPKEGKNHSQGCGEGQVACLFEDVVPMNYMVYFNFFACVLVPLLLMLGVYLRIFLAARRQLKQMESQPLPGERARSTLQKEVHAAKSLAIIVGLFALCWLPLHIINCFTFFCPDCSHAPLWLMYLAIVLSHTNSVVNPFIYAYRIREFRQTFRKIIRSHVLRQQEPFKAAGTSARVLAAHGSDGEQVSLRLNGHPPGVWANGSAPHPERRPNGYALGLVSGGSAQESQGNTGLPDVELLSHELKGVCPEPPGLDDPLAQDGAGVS

SMILES | inhibition [1] | inhibition at up to 10 µM [2, 5] | inhibition at 10 µM [3] | further results
OC(CNCC(O)C1CCc2cc(F)ccc2O1)C1CCc2cc(F)ccc2O1 (stereo not drawn) [Nebivolol] | < 50% | < 50% | < 50% | 
c1ccc(-c2cc(-c3ccccc3)c3nc(C4CCCCC4)[nH]c3n2)cc1 [LUF5981] |  |  |  | IC50 [4]: 200 nM
Nc1ccc(O)c(C(=O)O)c1 [Mesalazine] |  | < 50% | < 50% | inhibition at up to 10 µM [1, 6]: < 50%
Cc1c(O)cccc1C(=O)N[C@@H](CSc1ccccc1)[C@H](O)CN1C[C@H]2CCCC[C@H]2C[C@H]1C(=O)NC(C)(C)C [Nelfinavir] |  | < 50% | < 50% | inhibition at up to 10 µM [1, 6]: < 50%
CC1=C(C(=O)O)N2C(=O)[C@@H](NC(=O)[C@H](N)c3ccc(O)cc3)[C@H]2SC1 [Cefadroxil] |  | < 50% | < 50% | inhibition at up to 10 µM [1, 6]: < 50%
NC[C@H](O)c1ccc(O)c(O)c1 [Norepinephrine] | < 50% | < 50% | < 50% | 
C=CCN1C[C@H](C(=O)N(CCCN(C)C)C(=O)NCC)C[C@@H]2c3cccc4[nH]cc(c34)C[C@H]21 [Cabergoline] | < 50% | < 50% | < 50% | 
CC(C)[N+]1(C)[C@@H]2CC[C@H]1C[C@@H](OC(=O)C(CO)c1ccccc1)C2 (stereo partly drawn) [Ipratropium bromide] |  |  | < 50% | IC50, Ca2+, M [1, 7]: N.E. (N.E., no effects. Results showing an inhibition or stimulation lower than 50% are considered to represent insignificant effects of the test compounds.); IC50, cAMP, M [2, 7]: N.E. (N.E., no effects. Results showing an inhibition or stimulation lower than 50% are considered to represent insignificant effects of the test compounds.)
C#C[C@]1(O)CC[C@H]2[C@@H]3CCC4=CCCC[C@@H]4[C@H]3C(=C)C[C@@]21CC [Desogestrel] | < 50% | < 50% | < 50% | 
NC(=O)OCC(COC(N)=O)c1ccccc1 [Felbamate] | < 50% | < 50% | < 50% | 
CCCNCC(O)COc1ccccc1C(=O)CCc1ccccc1 (stereo not drawn) [Propafenone] | < 50% | < 50% | < 50% | 
Cc1ncc(CO)c(C=O)c1O [Pyridoxal] | < 50% | < 50% | < 50% | 
Cc1cc2c(OCC(CNC(C)(C)C)OC(=O)c3ccccc3)cccc2[nH]1 (stereo not drawn) [Bopindolol] | < 50% | < 50% | < 50% | 
COCCc1ccc(OCC(O)CNC(C)C)cc1 (stereo not drawn) [Metoprolol] | < 50% | < 50% | < 50% | 
C[S+](CC[C@H](N)C(=O)[O-])C[C@H]1O[C@@H](n2cnc3c(N)ncnc32)[C@H](O)[C@@H]1O (stereo partly drawn) [S-Adenosyl-methionine] |  | < 50% | 74% | inhibition at up to 10 µM [1, 6]: < 50%
CC(C)[C@H](N)C(=O)OCC(CO)OCn1cnc2c(=O)nc(N)[nH]c21 (stereo partly drawn) [Valganciclovir] | < 50% | < 50% | < 50% | 
O=C(/C=C/c1c(-c2ccccc2)nn2ccccc12)N1CCCC[C@@H]1CCO [FK453] |  |  |  | IC50 [4]: 1580 nM
CCN1CCCC1CNC(=O)c1cc(S(N)(=O)=O)ccc1OC (stereo not drawn) [Sulpiride] | < 50% | < 50% | < 50% | 
COc1ccc([C@@H]2Sc3ccccc3N(CCN(C)C)C(=O)[C@@H]2OC(C)=O)cc1 [Diltiazem] | < 50% | < 50% | < 50% | 
O=C(Oc1ccccc1C(=O)O)c1ccccc1O [Salsalate] | < 50% | < 50% | < 50% | 
Nc1nc(N)c2nc(-c3ccccc3)c(N)nc2n1 [Triamterene] | < 50% | < 50% | < 50% | 
CN(C)CCC(c1ccccc1)c1ccccn1 (stereo not drawn) [Pheniramine] |  | < 50% | < 50% | inhibition at up to 10 µM [1, 6]: < 50%
Cc1cc(C#N)cc(C)c1Oc1nc(Nc2ccc(C#N)cc2)nc(N)c1Br [Etravirine] |  | < 50% | < 50% | inhibition at up to 10 µM [1, 6]: < 50%
CO[C@@]1(NC(=O)Cc2cccs2)C(=O)N2C(C(=O)O)=C(COC(N)=O)CS[C@@H]21 [Cefoxitin] | < 50% | < 50% | < 50% | 
CC(C)C[C@H](NC(=O)[C@H](Cc1ccccc1)NC(=O)c1cnccn1)B(O)O [Bortezomib] | < 50% | < 50% | < 50% | 
COc1cccc2c1C(=O)c1c(O)c3c(c(O)c1C2=O)C[C@@](O)(C(=O)CO)C[C@@H]3O[C@H]1C[C@H](N)[C@H](O)[C@H](C)O1 [Doxorubicin] |  | < 50% | < 50% | IC50 [1, 7]: 2500 nM

SMILES | inhibition [1] | inhibition at up to 10 µM [2, 5] | inhibition at 10 µM [3] | further results
CC(C)OC(=O)[C@H](C)N[P@](=O)(OC[C@H]1O[C@@H](n2ccc(=O)[nH]c2=O)[C@](C)(F)[C@@H]1O)Oc1ccccc1 [Sofosbuvir] | < 50% |  | < 50% | inhibition ([2]; read-out: IC50, cAMP, M): < 50%
Cn1c(=O)c2c(ncn2CC(O)CO)n(C)c1=O (stereo not drawn) [dyphylline] |  |  |  | IC50 [4]: ~10000 nM
CN(CCOc1ccc(CC2SC(=O)NC2=O)cc1)c1ccccn1 (stereo not drawn) [Rosiglitazone] | < 50% | < 50% | < 50% | 
CCC1=C(C)CN(C(=O)NCCc2ccc(S(=O)(=O)NC(=O)N[C@H]3CC[C@H](C)CC3)cc2)C1=O [Glimepiride] |  | < 50% | < 50% | inhibition at up to 10 µM [1, 6]: < 50%
C=CC1=C(C(=O)O)N2C(=O)[C@@H](NC(=O)/C(=N\OCC(=O)O)c3csc(N)n3)[C@H]2SC1 [Cefixime] | < 50% | < 50% | < 50% | 
NCC1(CC(=O)O)CCCCC1 [Gabapentin] | < 50% |  |  | inhibition ([2]; read-out: IC50, cAMP, M): < 50%; inhibition [3]: < 50%
CCCSc1nc(N[C@@H]2C[C@H]2c2ccc(F)c(F)c2)c2nnn([C@@H]3C[C@H](OCCO)[C@@H](O)[C@H]3O)c2n1 [Ticagrelor] |  | < 50% | < 50% | inhibition at up to 10 µM [1, 6]: < 50%
COC(=O)C1=C(C)NC(C)=C(C(=O)OC(C)C)C1c1cccc2nonc12 (stereo not drawn) [Isradipine] | < 50% | < 50% | < 50% | 
O=C(Nc1cccc2c(=O)cc(-c3nnn[nH]3)oc12)c1ccc(OCCCCc2ccccc2)cc1 [Pranlukast] |  | < 50% | < 50% | IC50 [1, 7]: 830 nM
Nc1nnc(-c2cccc(Cl)c2Cl)c(N)n1 [Lamotrigine] | < 50% | < 50% | < 50% | 
C[C@@H](O)[C@H]1C(=O)N2C(C(=O)O)=C(S[C@@H]3CN[C@H](C(=O)Nc4cccc(C(=O)O)c4)C3)[C@H](C)[C@H]12 [Ertapenem] | < 50% | < 50% | < 50% | 
Cc1[nH]c(=O)c(C#N)cc1-c1ccncc1 [Milrinone] | < 50% | < 50% | < 50% | 
COc1ccc2c(c1)C(=O)N(CCc1ccc(S(=O)(=O)NC(=O)NC3CCCCC3)cc1)C(=O)C2(C)C [Gliquidone] | < 50% | < 50% | < 50% | 
N=C(N)NC(=O)c1nc(Cl)c(N)nc1N [Amiloride] | < 50% |  |  | inhibition ([2]; read-out: IC50, cAMP, M): < 50%; inhibition [3]: 53%
CC(C)[C@H](N)C(=O)OCCOCn1cnc2c(=O)[nH]c(N)nc21 [Valaciclovir] | < 50% | < 50% | < 50% | 
Cc1onc(-c2c(F)cccc2Cl)c1C(=O)N[C@@H]1C(=O)N2[C@@H]1SC(C)(C)[C@@H]2C(=O)O [Flucloxacillin] | < 50% | < 50% | < 50% | 
NC(N)=Nc1nc(CSCCC(N)=NS(N)(=O)=O)cs1 [Famotidine] | < 50% |  | < 50% | inhibition [2, 5]: < 50%
O=C1CCCC(=O)C1C(=O)c1ccc(C(F)(F)F)cc1[N+](=O)[O-] [Nitisinone] |  | < 50% | < 50% | inhibition at up to 10 µM [1, 6]: < 50%
COc1ccccc1Oc1c(NS(=O)(=O)c2ccc(C(C)(C)C)cc2)nc(-c2ncccn2)nc1OCCO [Bosentan] |  |  | < 50% | inhibition at 10 µM [1, 6]: < 50%; inhibition at 10 µM [2, 5]: < 50%
CC1=C(C(=O)O)N2C(=O)[C@@H](NC(=O)[C@H](N)c3ccccc3)[C@H]2SC1 [Cephalexin] | < 50% | < 50% | < 50% | 
Cc1ccc2c(c1)c1c3n2CCNC3CCC1 (stereo not drawn) [Pirlindole] |  | < 50% | < 50% | inhibition at up to 10 µM [1, 6]: < 50%
COc1ccc(OC)c(C(O)CNC(=O)CN)c1 (stereo not drawn) [Midodrine] | < 50% | < 50% | < 50% | 
C=CC1=C(C(=O)O)N2C(=O)[C@@H](NC(=O)/C(=N\O)c3csc(N)n3)[C@H]2SC1 [Cefdinir] | < 50% | < 50% | < 50% | 
CCCCCOC(=O)Nc1nc(=O)n([C@@H]2O[C@H](C)[C@@H](O)[C@H]2O)cc1F [Capecitabine] | < 50% | < 50% | < 50% | 
NC(=O)c1ncn([C@@H]2O[C@H](CO)[C@@H](O)[C@H]2O)n1 [Ribavirin] | < 50% | < 50% | < 50% | 
